Laboratory results published in patent US9738615B2, “Cyclophilin D inhibitors” (The University of Kansas, priority 2014, dated 2017).
Entries after “also recorded” stand apart in the source; their conditions may differ.

How the values were obtained:
CypD PPIase = CypD PPIase (Homo sapiens, UniProt P30405); assay: CypD PPIase enzyme activity inhibition (real-time kinetics assay); assay type: biochemical; details: for Inhibition of CypD PPIase activity (in words): reaction progress curves, 0.39 to 50 uM (Compound 9: 0.19 to 100 uM), 25° C.
Protocol: The ability of CypD inhibitors to inhibit CypD PPIase enzyme activity was determined using a previously utilized “standard” procedure (Kofron, J. L.; Kuzmic, P.; Kishore, V.; Colon-Bonilla, E.; Rich, D. H., Determination of kinetic constants for peptidyl prolyl cis-trans isomerases by an improved spectrophotometric assay. Biochemistry 1991, 30, 6127-34). The results are presented in FIGS. 2A-2D and compared to CsA in FIG. 2E.
Linearity was maintained up to 5 minutes of incubation at 25° C. […] Linearity was maintained up to 5 minutes of incubation at 25° C. […] FIG. 10 show reaction progress curves collected for CypD activity in DMSO alone or at various Compound 6C concentrations ranging from 0.39 to 50 uM. Linearity was maintained up to 5 minutes of incubation at 25° C. […] FIG. 11 show reaction progress curves collected for CypD activity in DMSO alone or at various Compound 9 concentrations ranging from 0.19 to 100 uM. Linearity was maintained up to 5 minutes of incubation at 25° C.
Since inhibition of CypD PPIase activity was essential for potentiation of Aβ cytotoxicity, Aβ-induced cytotoxicity can presumably be decreased if the Aβ-CypD interaction is blocked with small-molecule inhibitors like Compound 9.

SK-N-SH cells [1] = assay: Cytochrome c oxidase (CcO) activity in Aβ1-42-treated cells; assay type: cell-based
Protocol: The effect of the CypD inhibitors on cytochrome c oxidase (CcO) was studied. The effect of the CypD inhibitors on Aβ-induced mitochondrial respiratory function was assessed by determining cytochrome c oxidase (CcO) activity. CcO is a vital enzyme associated with the mitochondrial electron transport chain. SK-N-SH cells were treated for 48 hours with 5 μM of oligomer Aβ1-42 in the presence of 10-20 μM of CypD inhibitor C-9, after which samples were tested for CcO enzyme activity levels.

[2] = Blood brain barrier penetration, LC-MS/MS of CSF, plasma and brain; assay type: in vivo; details: mice, 10 mg/kg dose i.v., CSF and brain 4 hours after administration
Protocol: Samples were collected 4 hours after i.v. administration of 10 mg/kg of Compound 6A in mice. […] Samples were collected 4 hours after i.v. administration of 10 mg/kg of Compound 6B in mice. […] Samples were collected 4 hours after i.v. administration of 10 mg/kg of Compound 6C in mice.
Additionally a selective and sensitive method for detecting the presence of four compounds (Compounds 6A, 6B, 6C & 9) as CypD inhibitors in mouse plasma, brain and artificial cerebrospinal fluid is based on high performance liquid chromatography tandem mass spectrometry. Mass spectra were generated using Micromass Quattro Ultima “triple” quadrupole mass spectrometer equipped with Electrospray ionization interface. The method used for pharmacokinetic studies of compounds in mouse cerebrospinal fluid, plasma, and brain is accurate, precise, and specific with no matrix effect.

[3] = molecular target: human recombinant CypD protein (Homo sapiens, UniProt P30405); assay: Surface plasmon resonance (SPR) binding to immobilized CypD; details: for Kd: 1:1 Langmuir binding fit, CypD immobilized on CM5 chip, read-out: KD (equilibrium dissociation constant); for Binding to CypD (in words): dose dependent
Protocol: In vitro SPR was used to verify the ability of the CypD inhibitors to bind to human recombinant CypD protein, which correlates with its potential CypD inhibitory activity.
Surface plasmon resonance (SPR) analysis of CypD-Pyrimidine derivative binding interaction, where the globally fit data (black lines) were overlaid with experimental data (greyish lines). Human recombinant CypD protein (10 μg/ml) was immobilized directly on the hydrophilic carboxy methylated dextran matrix of the CM5 sensor chip (Biacore-3000) using the standard primary amine coupling reaction according to standard procedures. Compound 9 (2.5, 5, 10, 15, 20 μM) was injected at a flow rate of 40 μl/min for the determination of the kinetic and equilibrium constants. All data analyses were carried out using BIA evaluation software, and sensor grams were processed by automatic correction for nonspecific bulk refractive index.
The equilibrium dissociation constant (KD) was determined using a 1:1 Langmuir binding fit model and the association (kon) and dissociation (koff) rate constants were determined using Equations (1) and (2). dR/dt=kon×C×(Rmax−R)−koff×R (1)
Where R represents the response unit, C is the concentration of the analyte, and KD=koff/kon (2)
The obtained results were evaluated by χ^2 analysis and the kinetic parameters for Compound 9 are provided.

cortical mitochondria = assay: Calcium-induced mitochondrial swelling assay; set-up: species or system mice; details: mouse cortical mitochondria treated with Ca2+, compound added dose-dependently
Source text: Mitochondrial swelling in response to calcium was also studied. It is known that CypD-deficient cortical mitochondria are resistant to Aβ- and calcium (Ca^2+)-induced mitochondrial swelling and mitochondrial permeability transition. […] In order to determine the relationship between Ca^2+ and mitochondrial swelling, cortical mitochondria were isolated from mice and subjected to a swelling assay. Mitochondria treated with Ca^2+ experienced excessive swelling.
The fact that brain mitochondrial swelling was not affected by the inhibitors alone implies a symbiotic relationship between Ca^2+ and the inhibitor.

SK-N-SH cells [4] = assay: Cellular ATP levels in Aβ1-42-treated cells; assay type: cell-based; details: 48 hours
Protocol: The effect of the CypD inhibitors on the levels of adenosine-5′-triphosphate (ATP) was studied. To determine the effect of the CypD inhibitors on Aβ-induced energy metabolism impairment, cellular ATP levels were analyzed. SK-N-SH cells were exposed to 5 μM of Aβ1-42 in the presence of 10-20 μM of Compound 9. After 48 hours, we measured the ATP concentrations in the cell lysates.

SK-N-SH cells [5] = assay: MTT reduction cell viability assay (toxicity of inhibitor alone); assay type: cell-based; details: 0, 5, 10, 25, 50, and 100 μM in healthy SK-N-SH cells
Source text: The effect of the CypD inhibitors on cell viability was studied. Excellent reversal effects of the CypD inhibitor on Aβ-affected processes were observed, including diminished mitochondrial swelling, and enhanced CcO activity and ATP production, assessment of the overall cell health of SK-N-SH cells treated with the CypD inhibitors were studied. A wide dosing range was utilized to examine the effect of the CypD inhibitors on cell viability using an MTT (3-(4,5-dimethylthiazol-2-yl)-2,5-diphenyltetrazolium_bromide) reduction assay (0, 5, 10, 25, 50, and 100 μM of inhibitor diluted in cell culture medium).

SK-N-SH cells [6] = assay: Aβ-induced neuronal cell death, MTT reduction assay; assay type: cell-based; details: 10 and 20 μM
Source text: Assays examined the effect of the CypD inhibitor compounds on Aβ-induced neuronal cell death, commonly observed in AD. […] The addition of various dosages of inhibitor to the cells in the presence of Aβ1-42 increased cell viability. […] Thus, this evidence provides support that inhibition of CypD with specific inhibitors can provide a beneficial and powerful therapeutic tool in AD treatment.

CypD PPIase, sequence (P30405 30-207): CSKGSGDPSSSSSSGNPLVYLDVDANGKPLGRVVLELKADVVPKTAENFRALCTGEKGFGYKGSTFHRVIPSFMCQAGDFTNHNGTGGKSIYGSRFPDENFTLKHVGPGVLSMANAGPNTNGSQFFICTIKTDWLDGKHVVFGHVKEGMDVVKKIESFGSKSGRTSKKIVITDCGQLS
human recombinant CypD protein, sequence (P30405 30-207): as above

Compound	Inhibition of CypD PPIase activity (in words) (CypD PPIase)	Aβ-induced mitochondrial dysfunction (cytochrome c oxidase and ATP levels) (SK-N-SH cells [1])	Blood-brain barrier penetration [2]	Kd [3]	Binding to CypD (in words) [3]	IC50 (CypD PPIase; real time fluorescence monitoring, read-out: IC50 inhibiting PPIase activity of CypD)	Calcium-induced mitochondrial swelling (cortical mitochondria)	CcO activity in Aβ-treated cells (SK-N-SH cells [1]; 5 μM oligomer Aβ1-42, 10-20 μM inhibitor, 48 hours)	ATP levels in Aβ-treated cells (SK-N-SH cells [4]; 5 μM Aβ1-42, 10-20 μM compound, cell lysates)	ATP levels in cells exposed to inhibitor versus vehicle-treated cells without Aβ1-42 (SK-N-SH cells [4]; 10-20 μM compound)	Cell viability (MTT reduction), inhibitor alone (SK-N-SH cells [5])	Cell viability in the presence of Aβ1-42 (MTT reduction) (SK-N-SH cells [6])
CCOC(=O)C1=C(C)N=C2SC=C(CCc3ccccc3)N2C1c1cccc([N+](=O)[O-])c1 (centres unmarked) [Compound 6A]	inhibits CypD activity; also recorded: effective in reducing CypD peptidyl prolyl isomerase enzyme activity	abolished Aβ-induced mitochondrial dysfunction	penetrate the blood-brain barrier									
CCOC(=O)C1=C(C)N=C2SC=C(CCc3ccccc3)N2C1c1ccc(O)cc1 (centres unmarked) [Compound 6B]	inhibits CypD activity; also recorded: effective in reducing CypD peptidyl prolyl isomerase enzyme activity	abolished Aβ-induced mitochondrial dysfunction	penetrate the blood-brain barrier	248 nM	high binding affinity							
CCOC(=O)C1=C(C)N=C2SC=C(CCc3ccccc3)N2C1c1ccc(F)cc1 (centres unmarked) [Compound 6C]	inhibits CypD activity; also recorded: effective in reducing CypD peptidyl prolyl isomerase enzyme activity	abolished Aβ-induced mitochondrial dysfunction	penetrate the blood-brain barrier									
Cc1nc(-c2ccc(OCC(C)C)c(C#N)c2)sc1C(=O)Nc1ccc(S(N)(=O)=O)cc1 [Compound 9]	inhibits CypD activity; also recorded: effective in reducing CypD peptidyl prolyl isomerase enzyme activity	abolished Aβ-induced mitochondrial dysfunction	penetrate the blood-brain barrier	149 nM	high binding affinity	1490 ± 200 nM	swelling was diminished	rescued CcO activity	rescued ATP concentrations	comparable to those of vehicle-treated cells	no significant effect	significant effect on cell health
